Assay results: patent publication US9102648B1, “Bioavailable diacylhydrazine ligands for modulating the expression of exogenous genes via an ecdysone receptor complex” (Intrexon Corporation, priority 2003, dated 2015)

Key:
[1] = target: GAL4 DBD-CfEcR(DEF)/VP16AD-MmRXRE (Choristoneura fumiferana, UniProt O77240); experiment: 13B3 Assay (CHO stable cell line, luciferase reporter); conditions: for Fold Induction, 13B3 Assay, 33 uM: 33 uM ligand; for Fold Induction, 13B3 Assay, 33 uM / Fold Induction, 13B3 Assay, 3.3 uM: RLU ligand treated / RLU DMSO treated cells; for Fold Induction, 13B3 Assay, 33 uM / Fold Induction, 13B3 Assay, 3.3 uM / EC50: average of two wells; for Fold Induction, 13B3 Assay, 3.3 uM: 3.3 uM ligand; for 13B3 assay Rel Max FI: maximum fold induction at any concentration relative to that of GS-E ligand, CHO 13B3 cells; for EC50: read-out: 13B3 EC50, CHO 13B3 stable cell line, luciferase reporter, 48 h
From the text: GAL4 DBD-CfEcR(DEF)/VP16AD-MmRXRE:
The wild-type D, E, and F domains from spruce budworm Choristoneura fumiferana EcR (“CfEcR-DEF”; SEQ ID NO: 1) were fused to a GALA DNA binding domain (“Gal4DBD1-147”; SEQ ID NO: 2) and placed under the control of the SV40e promoter of pM vector (PT3119-5, Clontech, Palo Alto, Calif.). The D and E domains from Mus Musculus RXR (“MmRXR-DE”; SEQ ID NO: 11) were fused to the transactivation domain from VP16 (“VP16AD”; SEQ ID NO: 6) and placed under the control of the SV40e promoter of the pVP16 vector (PT3127-5, Clontech, Palo Alto, Calif.).
CHO cells were transiently transfected with transcription cassettes for GAL4 DBD-CJEcR(DEF) and for VP16AD-MmRXRE controlled by SV40e promoters. Stably transfected cells were selected using Hygromycin. Individually isolated CHO cell clones were transiently transfected with a GALA RE-luciferase reporter (pFR-Luc, Stratagene, La Jolla, Calif.). The 13B3 clone was selected using Zeocin.
(§1) Cells were trypsinized and diluted to a concentration of 2.5×10^4 cells mL. 100 μL of cell suspension was placed in each well of a 96 well plate and incubated at 37° C. under 5% CO2 for 24 h. Ligand stock solutions were prepared in DMSO and diluted 300 fold for all treatments. Dose response testing consisted of 8 concentrations ranging from 33 μM to 0.01 μM.
(§2) Luciferase reporter gene expression was measured 48 h after cell treatment using Bright-Glo™ Luciferase Assay System from Promega (E2650). Luminescence was detected at room temperature using a Dynex MLX microtiter plate luminometer.
(§3) Each assay was conducted in two separate wells, and the two values were averaged. Fold inductions were calculated by dividing relative light units (“RLU”) in ligand treated cells with RLU in DMSO treated cells. EC50s were calculated from dose response data using a three-parameter logistic model.

[2] = target: T1, Bombyx mori EcR (VP16 fusion, CVBE switch construct) (Bombyx mori, UniProt P49881); experiment: Z3 Assay (HEK-293 cells with CVBE and 6XEcRE LacZ, β-galactosidase reporter); conditions: for Fold Induction, Z3 Assay, 3.3 uM: 3.3 uM ligand; for Fold Induction, Z3 Assay, 3.3 uM / Fold Induction, Z3 Assay, 33 uM: ligand treated / DMSO treated cells; for Fold Induction, Z3 Assay, 3.3 uM / Fold Induction, Z3 Assay, 33 uM / EC50: average of two wells; for Fold Induction, Z3 Assay, 33 uM: 33 uM ligand; for Z3 assay Rel Max FI: maximum fold induction at any concentration relative to that of GS-E ligand; for Z3 assay Rel Max FI / EC50: HEK-293 Z3 cells; for EC50: read-out: Z3 assay EC50, β-galactosidase reporter
T1 sequence (P49881 86-606): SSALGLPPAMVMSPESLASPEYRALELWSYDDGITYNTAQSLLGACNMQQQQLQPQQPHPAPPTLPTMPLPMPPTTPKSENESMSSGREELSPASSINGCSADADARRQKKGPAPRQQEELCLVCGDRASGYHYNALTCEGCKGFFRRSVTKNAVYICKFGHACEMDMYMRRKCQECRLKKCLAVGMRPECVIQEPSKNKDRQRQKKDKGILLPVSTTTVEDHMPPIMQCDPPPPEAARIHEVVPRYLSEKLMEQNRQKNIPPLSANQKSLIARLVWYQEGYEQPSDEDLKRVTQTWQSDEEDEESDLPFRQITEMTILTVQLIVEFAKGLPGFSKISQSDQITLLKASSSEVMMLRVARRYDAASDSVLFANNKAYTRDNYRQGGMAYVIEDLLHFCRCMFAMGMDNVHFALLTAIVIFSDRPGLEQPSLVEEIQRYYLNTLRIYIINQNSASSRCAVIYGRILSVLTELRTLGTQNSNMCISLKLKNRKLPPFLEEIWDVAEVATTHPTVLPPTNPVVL
T1 sequence (P19793 1-462 partner): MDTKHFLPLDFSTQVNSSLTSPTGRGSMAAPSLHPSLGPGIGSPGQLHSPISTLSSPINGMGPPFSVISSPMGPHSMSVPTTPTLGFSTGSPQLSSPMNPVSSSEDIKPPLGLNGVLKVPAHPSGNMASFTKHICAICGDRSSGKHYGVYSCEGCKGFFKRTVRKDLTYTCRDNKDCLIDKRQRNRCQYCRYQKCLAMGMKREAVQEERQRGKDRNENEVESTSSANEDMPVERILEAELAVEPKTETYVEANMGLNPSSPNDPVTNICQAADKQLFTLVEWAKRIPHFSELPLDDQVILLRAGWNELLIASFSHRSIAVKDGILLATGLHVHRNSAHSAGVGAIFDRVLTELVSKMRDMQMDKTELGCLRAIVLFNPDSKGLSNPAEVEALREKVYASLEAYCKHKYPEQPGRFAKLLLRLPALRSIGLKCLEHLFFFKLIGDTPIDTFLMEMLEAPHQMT
From the text: Dr. F. Gage provided a population of stably transformed cells containing CVBE and 6XEcRE as described in Suhr, S. T., Gil, E. B., Senut M. C., Gage, F. H. (1998) Proc. Natl. Acad. Sci. USA 95, 7999-804. Human 293 kidney cells, also referred to as HEK-293 cells, were sequentially infected with retroviral vectors encoding first the switch construct CVBE, and subsequently the reporter construct 6XEcRE Lac Z. The switch construct contained the coding sequence for amino acids 26-546 from Bombyx mori EcR (BE) (Iatrou) inserted in frame and downstream of the VP16 transactivation domain (VBE). A synthetic ATG start codon was placed under the control of cytomegalovirus (CVBE) immediate early promoter and flanked by long terminal repeats (LTR). The reporter construct contained six copies of the ecdysone response element (EcRE) binding site placed upstream of LacZ and flanked on both sides with LTR sequences (6XEcRE).
Dilution cloning was used to isolate individual clones. Clones were selected using 450 ug/mL G418 and 100 ng/mL puromycin. Individual clones were evaluated based on their response in the presence and absence of test ligands.
Human 293 kidney cells stably transformed with CVBE and 6XEcRE LacZ were maintained in Minimum Essential Medium (Mediates, 10-010-CV) containing 10% FBS (Life Technologies, 26140-087), […] G418 (Mediates, 30-234-CR), and […] (Sigma, P-7255), at 37° C. in an atmosphere containing 5% CO2 and were subculture when they reached 75% confluence.
Z3 cells were seeded into 96-well tissue culture plates at a concentration of 2.5×10^3 cells per well and incubated at 37° C. in 5% CO2 for twenty-four hours. Stock solutions of ligands were prepared in DMSO. Ligand stock solutions were diluted 100 fold in media and 50 μL of this diluted ligand solution ([…]) was added to cells. The final concentration of DMSO was maintained at 0.03% in both controls and treatments.
Reporter gene expression was evaluated 48 hours after treatment of cells, β-galactosidase activity was measured using Gal Screen™ bioluminescent reporter gene assay system from Tropix (GSY1000). Fold induction activities were calculated by dividing relative light units (“RLU”) in ligand treated cells with RLU in DMSO treated cells. Luminescence was detected at room temperature using a Dynex MLX microtiter plate luminometer.
Flanking both constructs are long terminal repeats, G418 and puromycin are selectable markers, CMV is the cytomegalovirus promoter, VBE is coding sequence for amino acids 26-546 from Bombyx mori EcR inserted downstream of the VP16 transactivation domain, 6×EcRE is six copies of the ecdysone response element, lacZ encodes for the reporter enzyme β-galactosidase.
as §3

[3] = target: GAL4 DBD (1-147)-CfEcR(DEF)/VP16AD-βRXREF-LmUSPEF (Choristoneura fumiferana, UniProt O77240); experiment: cell-based
From the text: GAL4 DBD (1-147)-CfEcR(DEF)/VP16AD-βRXREF-LmUSPEF:
The wild-type D, E, and F domains from spruce budworm Choristoneura fumiferana EcR (“CfEcR-DEF”; SEQ ID NO: 1) were fused to a GAL4 DNA binding domain (“Gal4DBD1-147”; SEQ ID NO: 2) and placed under the control of a phosphoglycerate kinase promoter (“PGK”; SEQ ID NO: 3). Helices 1 through 8 of the EF domains from Homo sapiens RXRβ (“HsRXRβ-EF”; nucleotides 1-465 of SEQ ID NO: 4) and helices 9 through 12 of the EF domains of Locusta migratoria Ultraspiracle Protein (“LmUSP-EF”; nucleotides 403-630 of SEQ ID NO: 5) were fused to the transactivation domain from VP16 (“VP16AD”; SEQ ID NO: 6) and placed under the control of an elongation factor-1α promoter (“EF-1α”; SEQ ID NO: 7). Five consensus GAL4 response element binding sites (“5XGAL4RE”; comprising 5 copies of a GAL4RE comprising SEQ ID NO: 8) were fused to a synthetic TATA minimal promoter (SEQ ID NO: 9) and placed upstream of the luciferase reporter gene (SEQ ID NO: 10).
CHO cells were transiently transfected with transcription cassettes for GAL4 DBD (1-147) CJEcR(DEF) and for VP16AD βRXREF-LmUSPEF controlled by ubiquitously active cellular promoters (PGK and EF-la, respectively) on a single plasmid. Stably transfected cells were selected by Zeocin resistance. Individually isolated CHO cell clones were transiently transfected with a GAL4 RE-luciferase reporter (pFR Luc). 27-63 clone was selected using Hygromycin.
as §1, with “[…]” for “33 μM”
as §2, §3

SMILES | Fold Induction, 13B3 Assay, 33 uM [1] | Fold Induction, Z3 Assay, 3.3 uM [2] | Fold Induction, Z3 Assay, 33 uM [2] | Z3 assay Rel Max FI [2] | EC50 [2] [nM] | Fold Induction, 13B3 Assay, 3.3 uM [1] | 13B3 assay Rel Max FI [1] | EC50 [1] [nM] | Fold Induction, 27-63 Assay, 3.3 uM ([3]; 3.3 uM ligand, RLU ligand treated / RLU DMSO treated cells, average of two wells) | Fold Induction, 27-63 Assay, 33 uM ([3]; 33 uM ligand, RLU ligand treated / RLU DMSO treated cells, average of two wells) | 27-63 assay Rel Max FI ([3]; maximum fold induction at any concentration relative to that of GS-E ligand, CHO 27-63 cells) | EC50 ([3]; read-out: 27-63 assay EC50, CHO 27-63 stable cell line, luciferase reporter, average of two wells) [nM] | fold induction at 33 µM ([1]; read-out: Fold Induction, 13B3 Assay, 33 uM)
CCc1c(OC)cccc1C(=O)NN(C(=O)c1cc(OC)c(OC)c(OC)c1)C(C)(C)C [RG-115329] | 5644 | 259 | 430 | 0.892 | 2570 |  |  |  |  |  |  |  | 
CCc1c(OC)cccc1C(=O)NN(C(=O)c1cccc(C#N)c1)C(C)(C)C [RG-115327] | 3785 | 279 | 325 | 0.662 | 2750 |  |  |  |  |  |  |  | 
COc1ccc(Cl)cc1C(=O)N(NC(=O)c1cccc(C)c1C)C(C)(C)C [RG-101178] | 699 | 1200 | 431 | 0.887 | 1320 |  |  |  |  |  |  |  | 
Cc1c(C(=O)NN(C(=O)c2cc(Cl)nc(Cl)c2)C(C)(C)C)ccc2c1OCCO2 [RG-115536] |  | 488 |  | 0.950 | 126 | 483 | 0.734 | 781 |  |  |  |  | 
CCc1ccc(C(=O)NN(C(=O)c2ccc(F)cc2)C(C)(C)C)c(F)c1 [RG-100901] | 882 | 1527 | 185 | 0.918 | 316 |  |  |  |  |  |  |  | 
CCc1ccc(C(=O)NN(C(=O)c2cccc(C)c2)C(C)(C)C)c(F)c1 [RG-115674] |  | 319 |  | 0.995 | 229 | 442 | 0.875 | 1720 |  |  |  |  | 
CCc1ccc(C(=O)NN(C(=O)c2cc(C)c(Cl)c(C)c2)C(C)(C)C)cc1 [RG-101862] | 293 | 717 | 250 | 0.866 | 269 | 3279 | 0.861 | 1050 |  |  |  |  | 
CCc1ccc(C(=O)NN(C(=O)c2ccc(OC)nc2OC)C(C)(C)C)c(F)c1 [RG-115050] | 894 | 424 | 1446 | 0.808 | 282 | 2027 | 0.724 | 762 |  |  |  |  | 
CCc1c(OC)cccc1C(=O)NN(C(=O)c1cnc(C)cn1)C(C)(C)C [RG-115091] | 1 |  | 61 |  |  |  |  |  |  |  |  |  | 
CCc1c(C(=O)NN(C(=O)c2ccc(F)cc2)C(C)(C)C)ccc2c1OCOC2 [RG-100574] |  |  | 389 |  | 1120 |  |  |  | 151 | 21 | 0.371 | 4000 | 
CCc1c(OC)cccc1C(=O)NN(C(=O)c1ccc2ncn(C(c3ccccc3)(c3ccccc3)c3ccccc3)c2c1)C(C)(C)C [RG-115718, 3-trityl-3H-benzoimidazole-5-carboxylic acid N-tert-butyl-N′-(2-ethyl-3-methoxy-benzoyl)-hydrazide] |  |  |  |  |  |  |  |  |  |  |  |  | 2
